Results as given in article PMC7268545, “Development of a QPatch-Automated Electrophysiology Assay for Identifying TMEM16A Small-Molecule Inhibitors” (Assay and Drug Development Technologies, 2020).
Like-named read-outs stand apart in the source and are kept apart here.

Molecular target: T1, human ANO1 channel (isoform acd) (Homo sapiens, UniProt Q5XXA6)
T1 construct: host or cells: HEK293T
T1 sequence (Q5XXA6 1-986): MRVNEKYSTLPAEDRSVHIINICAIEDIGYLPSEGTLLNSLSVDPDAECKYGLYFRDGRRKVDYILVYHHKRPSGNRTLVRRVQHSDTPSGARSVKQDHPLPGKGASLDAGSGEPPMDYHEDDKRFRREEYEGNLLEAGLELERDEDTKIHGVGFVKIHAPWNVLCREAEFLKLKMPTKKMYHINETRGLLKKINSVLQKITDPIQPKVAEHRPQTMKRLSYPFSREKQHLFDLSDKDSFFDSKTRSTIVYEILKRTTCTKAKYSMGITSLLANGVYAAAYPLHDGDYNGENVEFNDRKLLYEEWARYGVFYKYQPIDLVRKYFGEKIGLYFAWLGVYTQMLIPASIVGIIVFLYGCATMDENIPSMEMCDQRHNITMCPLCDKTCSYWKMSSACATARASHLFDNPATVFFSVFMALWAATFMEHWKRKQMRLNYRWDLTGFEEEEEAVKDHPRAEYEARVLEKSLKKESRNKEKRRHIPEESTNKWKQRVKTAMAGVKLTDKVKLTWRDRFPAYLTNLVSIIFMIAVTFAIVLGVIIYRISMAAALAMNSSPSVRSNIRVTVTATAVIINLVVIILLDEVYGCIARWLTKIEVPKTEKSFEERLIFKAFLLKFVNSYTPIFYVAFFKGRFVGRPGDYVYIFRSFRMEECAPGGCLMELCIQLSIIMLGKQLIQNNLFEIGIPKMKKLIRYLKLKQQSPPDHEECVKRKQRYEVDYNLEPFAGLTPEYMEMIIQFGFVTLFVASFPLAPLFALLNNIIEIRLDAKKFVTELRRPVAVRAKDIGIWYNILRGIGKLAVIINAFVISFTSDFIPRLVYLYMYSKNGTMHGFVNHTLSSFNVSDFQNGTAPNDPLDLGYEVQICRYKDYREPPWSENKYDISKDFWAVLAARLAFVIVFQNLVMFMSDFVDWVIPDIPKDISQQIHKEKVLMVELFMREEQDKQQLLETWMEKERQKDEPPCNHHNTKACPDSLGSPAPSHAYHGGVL
Assay: QPatch-48 automated whole-cell electrophysiology, cumulative five-concentration single-addition protocol
Assay type: cell-based
Procedure: HEK293T cells stably expressing the human ANO1 channel (isoform acd) were obtained from Scottish Biomedical. Cells were cultured in Sigma Minimum Essential Media containing 10% heat-inactivated fetal bovine serum, 1% penicillin/streptomycin, 1% glutamine, and […] geneticin. Cells were maintained in a 37°C, 5% CO2 environment. Cells were passaged every 3 days after they had reached ∼70% confluency and were not allowed to reach a density greater than 1–2 × 10^5 cells/cm^2 during routine culture. When subculturing, cells were rinsed once with room temperature 1 × phosphate-buffered saline (PBS; Ca^2+/Mg^2+ free), lifted with TrypLE Express, resuspended in prewarmed growth media, and counted using a hemocytometer. Cells were then plated in T150 flasks at a density of 2.9 × 10^4 cells/cm^2 to be either used in the assay or subcultured 72 h later.
On the day of the experiment, cells plated at a density of 2.9 × 10^4 cells/cm^2 72 h prior should be ∼70%–80% confluent. After cells were rinsed with prewarmed 1 × PBS (Ca^2+/Mg^2+ free), 3 mL of room temperature Detachin solution (Genlantis) was added to the flask and tilted gently two to three times to cover all the cells. Approximately 2 mL of Detachin was aspirated from the flask, leaving 1 mL on the cells, and then placed in the 37°C incubator for 5 min. Once cells had rounded up, the cells were dislodged by tapping the flask gently. The cells were then resuspended in 5 mL of warm serum-free media (EX-CELL ACF CHO Medium; Sigma; supplemented with 4 mM L-glutamine and 10 mM HEPES). A glass Pasteur pipette with a rubber bulb was then used to gently dissociate the cells from one another. Detachin will often leave cells as doublets or clumps, conditions that will disrupt seal formation on the QPatch. The cells were triturated ∼30 times and then, still using the Pasteur pipette, transferred into the QPatch Cell Hotel. This ensures that cells detach from one another leaving a suspension of single cells. A QStirrer was added to the Cell Hotel and the cell suspension was immediately placed on the QPatch device. Cells were utilized within 15 min.
Compounds were reconstituted in dimethyl sulfoxide (DMSO; Sigma) as 10 mM stock solutions. An automated dilution machine set up the microtiter plate (MTP ) by making 1:5 dilutions from a starting concentration of 30 μM. The concentration of DMSO was equal for all concentrations tested. Each MTP contained one row of a negative control (DMSO) and a positive control (benzbromarone). A total of eight compounds were run at a time. All compounds tested were produced in-house.
Whole-cell patch-clamp experiments were performed on a QPatch-48-automated electrophysiology platform (Sophion Biosciences) using the 48-channel, single-hole QPlate (resistance 2.0 ± 0.4 MΩ). The external buffer (in mM) was 140 NaCl, 4 KCl, 2 CaCl2, 1 MgCl2, 10 HEPES, 10 glucose, pH 7.4 (osmolarity = 300), and the internal buffer (in mM) was 110 CsCl, 20 TEA-Cl, 5.374 CaCl2, 1.75 MgCl2, 10 EGTA, 10 HEPES, 4 Na2ATP, pH 7.2 (osmolarity = 310). Cell positioning was set to a 5-s wait time with a positioning pressure of −60 mbar and a positioning time-out of 60 s. Resistance was set to increase 750% to ensure the success of positioning. To obtain a seal, pressure was increased to −70 mbar with an allowed pressure of −130 to −20 mbar and a holding pressure of −20 mbar. The holding potential was set to −70 mV and a 240-s time-out was set. The minimum seal resistance was set to 0.02 GΩ. To go whole cell, five 1-s suction pulses were applied starting at −180 mbar and increasing with −40 mbar increments with a pulse period of 10 s. Suction ramp and voltage zap protocols were kept standard, according to the default HEK cell settings. […] The suction ramp order of use was set to 2 with a ramp amplitude of −450 mbar and a ramp slope of 100 ms/mbar.
Once established in whole-cell configuration, cells are clamped to a holding potential (Vhold) of 0 mV.

[1] = half plate (24-well format), cumulative single-addition, n = 5, read-out: average IC50 (mean ± SD)
[2] = independent experiment 3, read-out: IC50s for independent experiments 3
[3] = independent experiment 4, read-out: IC50s for independent experiments 4
[4] = independent experiment 5, read-out: IC50s for independent experiments 5

Structure (SMILES) | IC50 (IC50s for independent experiments 1, independent experiment 1, block at +100 mV, 250 nM internal free-calcium) | IC50 (IC50s for independent experiments 2, independent experiment 2) | IC50 (full 48-well plate format (with rundown), n = 1, read-out: IC50, full 48-well plate format) | IC50 [1] | IC50 [2] | IC50 [3] | IC50 [4] | IC50 (QPatch, 1-min incubations, read-out: concentration inhibiting 50% of channel current) | IC50 (independent experiment 1, block at +100 mV, 250 nM internal free-calcium, read-out: IC50s for independent experiments 1) | IC50 (independent experiment 2, read-out: IC50s for independent experiments 2)
CCc1oc2ccccc2c1C(=O)c1cc(Br)c(O)c(Br)c1 [Benzbromarone] | 3450 nM | 1510 nM | 730 nM | 2540 ± 940 nM | 1310 nM | 2300 nM | 3180 nM | – | – | –
O=C(Nc1ccc([N+](=O)[O-])cc1Cl)c1cc(Cl)ccc1O [Niclosamide] | – | – | – | 1600 ± 390 nM | 1050 nM | 2090 nM | 1810 nM | ~1000 nM | 1620 nM | 1430 nM
